The values that follow come from ChEMBL document CHEMBL3758098, “3-(Dipropylamino)-5-hydroxybenzofuro[2,3-f]quinazolin-1(2H)-one (DPA-HBFQ-1) plays an inhibitory role on breast cancer cell growth and progression” (Eur J Med Chem, 2016).

Active and inactive are the calls of the source. No cut-off for these calls is given here.

Data set [1] is described as follows: Cytotoxicity against human MCF10A cells assessed as growth inhibition at 1 uM after 5 days by MTT assay relative to vehicle-treated control. In kind it is cell-based. The conditions noted are these: mcf-10a, 120 h. (Tetrazolium dyes change colour on reduction, which living cells bring about.)
The next data set deals with MCF7. As to the kind of experiment: Cytotoxicity against human MCF7 cells assessed as growth inhibition at 1 uM after 5 days by MTT assay relative to vehicle-treated control. Format: functional. The conditions noted are these: MCF7, 120 h, read-out: GI.
The next data set has as its system MDA-MB-231. As to the kind of experiment: Cytotoxicity against human MDA-MB-231 cells assessed as growth inhibition at 1 uM after 5 days by MTT assay relative to vehicle-treated control. Format: functional.

Turning to `CCCN(CCC)c1nc2c(OC)cc3c4ccccc4oc3c2c(=O)[nH]1`, the Activity entry in data set [1] is reported as “Non-toxic”. Further, the inhibition of growth at 1 µM in the data set with MCF7 was determined as 37%. For the same compound, the “growth inhibition (GI)” value in the data set with MDA-MB-231 was “Active”.
The matching figures for `CCN(CC)c1nc2ccc3c4ccccc4oc3c2c(=O)[nH]1`: “Non-toxic”, 10% and “Active”.
The matching figures for `CCCN(CCC)c1nc2ccc3c4ccccc4oc3c2c(=O)[nH]1`: “Non-toxic”, 25% and “Active”.
For the compound `CCCCN(CCCC)c1nc2ccc3c4ccccc4oc3c2c(=O)[nH]1`, the Activity result in data set [1] is listed as “Non-toxic”. For the same compound, the inhibition of growth at 1 µM with MCF7 worked out at 15%. Also, the “growth inhibition (GI)” value in the data set on MDA-MB-231 was “Active”.
